In ChEMBL document CHEMBL5550186, “Exploring the Potential of Cyclic Peptidyl Antitumor Agents Derived from Natural Macrocyclic Peptide Phakellistatin 13” (J Med Chem, 2024):
Active and inactive are the calls of the source. The rule behind the calls is not given here.

Legend:
[1] = Upregulation of SOCS1 expression level in human HepG2 cells assessed as fold change by KEGG enrichment analysis; format: functional
HepG2 [2] = assay: Induction of cell cycle arrest in human HepG2 cells assessed as accumulation of cells at >G2/M phase at 10 uM incubated for 48 hrs by PI staining based flow cytometry analysis (reference value: 28.0%); format: functional
HepG2 [3] = assay: Induction of cell cycle arrest in human HepG2 cells assessed as accumulation of cells at 2N phase at 20 uM incubated for 48 hrs by PI staining based flow cytometry analysis (reference value: 26.0%); format: functional
[4] = Upregulation of DDIT3 expression level in human HepG2 cells assessed as fold change by KEGG enrichment analysis; format: functional
HepG2 [5] = assay: Induction of apoptosis in human HepG2 cells assessed as early apoptotic cells at 20 uM incubated for 48 hrs by annexin V-FITC/PI staining based flow cytometry analysis (reference value: 0.50%); format: functional
[6] = Upregulation of CDKN1A expression level in human HepG2 cells assessed as fold change by KEGG enrichment analysis; format: functional
HepG2 [7] = assay: Induction of cell cycle arrest in human HepG2 cells assessed as accumulation of cells at <2N phase at 10 uM incubated for 12 hrs by PI staining based flow cytometry analysis (reference value: 0.027%); format: functional
HepG2 [8] = assay: Induction of apoptosis in human HepG2 cells assessed as increase in caspase 3 activity at 5 to 10 uM measured after 24 hrs by green-nuc staining based fluorescence microscopic analysis; format: functional, cell-based; conditions: dose 5-10 µM
[9] = Upregulation of DET1 expression level in human HepG2 cells assessed as fold change by KEGG enrichment analysis; format: functional
[10] = Upregulation of SESN3 expression level in human HepG2 cells assessed as fold change by KEGG enrichment analysis; format: functional
HepG2 [11] = assay: Induction of cell cycle arrest in human HepG2 cells assessed as accumulation of cells at S phase at 5 uM incubated for 48 hrs by PI staining based flow cytometry analysis (reference value: 39.6%); format: functional
HepG2 [12] = assay: Upregulation of cytochrome c level in human HepG2 cells at 5 to 20 uM measured after 48 hrs by Western blot analysis; format: functional, cell-based; conditions: dose 5-20 µM
HepG2 [13] = assay: Induction of morphological changes in human HepG2 cells assessed as decrease in cell adhesion at 40 uM measured after 12 to 24 hrs by fluorescence inverted microscopic analysis; format: functional, cell-based; conditions: time 12-24 hrs
HepG2 [14] = assay: Induction of autophagy in human HepG2 cells assessed as increase in formation of autophagosomes at 5 to 10 uM incubated for 24 hrs by acridine orange staining based laser confocal microscopic analysis; format: functional, cell-based; conditions: dose 5-10 µM
HepG2 [15] = assay: Induction of morphological changes in human HepG2 cells assessed as increase in cell death at 40 uM measured after 48 hrs by fluorescence inverted microscopic analysis; format: functional, cell-based
HepG2 [16] = assay: Antiproliferative activity against human HepG2 cells incubated for 48 hrs by MTT assay; format: functional, cell-based; conditions: HepG2, 48 h
HepG2 [17] = assay: Induction of cell cycle arrest in human HepG2 cells assessed as accumulation of cells at >G2/M phase at 5 uM incubated for 48 hrs by PI staining based flow cytometry analysis (reference value: 28.0%); format: functional
HepG2 [18] = assay: Induction of apoptosis in human HepG2 cells assessed as necrotic cells at 10 uM incubated for 48 hrs by annexin V-FITC/PI staining based flow cytometry analysis (reference value: 0%); format: functional
HepG2 [19] = assay: Induction of cell cycle arrest in human HepG2 cells assessed as assessed as accumulation of cells at G2/M phase at 10 uM incubated for 12 hrs by PI staining based flow cytometry analysis (reference value: 6.38%); format: functional
[20] = Upregulation of […] expression level in human HepG2 cells assessed as fold change by KEGG enrichment analysis; format: functional
[21] = Effect on MAML3 expression level in human HepG2 cells assessed as fold change by KEGG enrichment analysis; format: functional
HepG2 [22] = assay: Induction of apoptosis in human HepG2 cells assessed as late apoptotic cells at 10 uM incubated for 48 hrs by annexin V-FITC/PI staining based flow cytometry analysis (reference value: 0.16%); format: functional

With `CC(C)C[C@H]1NC(=O)[C@H]([C@@H](C)OCc2ccccc2)NC(=O)[C@H]2CCCN2C(=O)CN2C(=O)c3ccccc3[C@@]2(O)CN(Cc2ccccc2)C(=O)[C@H](Cc2ccccc2)NC(=O)[C@H]2CCCN2C(=O)[C@H](Cc2c[nH]c3ccccc23)NC1=O` the “fold change (FC)” value [1] was 1.707, the Activity (HepG2 [2]) was 0% and the Activity (HepG2 [3]) was 21.9%. For the same compound, the “fold change (FC)” value [4] was 1.968, the Activity (HepG2 [5]) was 41.1% and the “fold change (FC)” value [6] was 1.175. The Activity (HepG2 [7]) was 36.2%, the Activity (HepG2 [8]) was “Active” and the “fold change (FC)” value [9] was 1.448. For the same compound, the “fold change (FC)” value [10] was 1.529, the Activity (HepG2 [11]) was 12.3% and the Activity (HepG2 [12]) was “Active”. The Activity (HepG2 [13]) was “Active”, the Activity (HepG2 [14]) was “Active” and the Activity (HepG2 [15]) was “Active”. For the same compound, the IC50 (HepG2 [16]) was 11.6 µM, the Activity (HepG2 [17]) was 2.76% and the Activity (HepG2 [18]) was 0%. For the same compound, the Activity (HepG2 [19]) was 12.4%, the “fold change (FC)” value [20] was 1.218 and the “fold change (FC)” value [21] was -1.198. It also gave an Activity (HepG2 [22]) of 4.57%.
